First: CCOP(=O)(OCC)OCC
Second: CCO[Si](CCCN)(OCC)OCC
The boiling point of the first is lower: 216 °C for the first, 217 °C for the second.

First: c1ccc([C@@H]2CCCNC2)cc1
Second: C[C@H](N)CCc1ccccc1
The boiling point of the first is higher: 257 °C for the first, 223 °C for the second.

Going from `CCCCCC(C)(C)CC` to `CCCCCCOCC`, the boiling point falls from 161 °C to 143 °C.

First: Clc1ccoc1
Second: Cc1nc2ccccc2o1
The boiling point of the first is lower: 80 °C for the first, 200 °C for the second.

First: CCP(c1ccccc1)c1ccccc1
Second: c1ccc(-c2cnc(-c3ccccc3)o2)cc1
The boiling point of the first is lower: 293 °C for the first, 360 °C for the second.

First: CCCCCCCCCS
Second: CCCCCCCOC(=O)CCCCC
The boiling point of the first is lower: 220 °C for the first, 261 °C for the second.

Going from `CCN=C=S` to `CCOC(C)Cl` (stereo not drawn), the boiling point falls from 132 °C to 93.5 °C.

First: Cc1ccc2ccccc2n1
Second: CC(C)(C)c1ccc2ccccc2c1
The boiling point of the first is lower: 246 °C for the first, 276 °C for the second.

Compared with `CCCCON=O`, `CCCC(C)C=O` (stereo not drawn) is higher in boiling point: 78 °C for the first, 117 °C for the second.

Compared with `OC1CCCC1`, `N#CC1CCC1` is higher in boiling point: 140 °C for the first, 150 °C for the second.

First: COc1ccccc1Cl
Second: CCC(=O)OCc1ccccc1
The boiling point of the first is lower: 198 °C for the first, 220 °C for the second.

First: CCCCCCCC(=O)c1ccccc1
Second: CCCCC(=O)OC(=O)CCCC
The boiling point of the first is higher: 285 °C for the first, 227 °C for the second.

Going from `CC(C)(F)F` to `N#CC(F)(F)F`, the boiling point falls from -0.4 °C to -68.8 °C.

Compared with `C=CCc1ccc2c(c1)OCO2`, `O=[N+]([O-])c1ccc(Cl)c(Cl)c1` is higher in boiling point: 234 °C for the first, 256 °C for the second.

`C/C=C/C=C/C=O` and `O=C(Cl)CCCCl` are the same in boiling point: 174 °C for the first, 174 °C for the second.

Going from `C1=CCCCCC1` to `CC(C)C1=CC[C@H](C)CC1`, the boiling point rises from 115 °C to 168 °C.

Going from `CCC(C)C(C)C(C)(C)C` (stereo not drawn) to `CCOC(=O)C(C(=O)OCC)C(C)C`, the boiling point rises from 157 °C to 215 °C.

First: C1O[C@@H]1[C@@H]1CO1
Second: COC1CCC(OC)O1 (stereo not drawn)
The boiling point of the first is lower: 144 °C for the first, 146 °C for the second.

First: CC(C)N=C=NC(C)C
Second: CC(O)CCl (stereo not drawn)
The boiling point of the first is higher: 147 °C for the first, 127 °C for the second.

Work on `CB(C)Cl` yielded a boiling point of 4.9 °C.

Compared with `CCOP(=O)(OCC)OCC`, `C/C=C/C=C/C=O` is higher in log10 Henry constant (atm·m³/mol): -7.44 for the first, -5.01 for the second.

In the case of `O=[N+]([O-])c1ccc(Cl)c(Cl)c1`, the log10 Henry constant (atm·m³/mol) is reported as -5.09.

Going from `CCOP(=O)(OCC)OCC` to `CCCCCCCCCCCCCCC(=O)OC`, the log10 vapour pressure (mmHg) falls from -0.406 to -3.79.

Compared with `O=C(O)CN(CCN(CC(=O)O)CC(=O)O)CC(=O)O`, `C=C(C)C(=O)OCCO` is higher in log10 vapour pressure (mmHg): -11.8 for the first, -0.9 for the second.

Going from `CCCCCCCCCS` to `CCN=C=S`, the log10 vapour pressure (mmHg) rises from -0.881 to 1.06.

First: Cc1ccc2ccccc2n1
Second: COc1ccccc1Cl
The log10 vapour pressure (mmHg) of the first is lower: -2.02 for the first, -0.623 for the second.

Compared with `OC1CCCC1`, `CC(O)CCl` (stereo not drawn) is higher in log10 vapour pressure (mmHg): 0.396 for the first, 0.69 for the second.

First: O=[N+]([O-])c1ccc(Cl)c(Cl)c1
Second: O=C1c2ccccc2C(=O)c2c(O)ccc(O)c21
The log10 vapour pressure (mmHg) of the first is higher: -1.99 for the first, -7.61 for the second.

Compared with `CCOP(=O)(OCC)OCC`, `CCCCC(=O)OC(=O)CCCC` is higher in melting point: -56.4 °C for the first, -56.1 °C for the second.

First: c1ccc([C@@H]2CCCNC2)cc1
Second: C[C@H](N)CCc1ccccc1
The melting point of the first is lower: 14.5 °C for the first, 143 °C for the second.

Compared with `COc1c(OC)c(OC(C)=O)c2c(OC)cccc2c1OC(C)=O`, `COc1c2ccoc2cc2oc(C)cc(=O)c12` is higher in melting point: 69.5 °C for the first, 144 °C for the second.

Going from `O=C(NCCO[N+](=O)[O-])c1cccnc1` to `COc1cccc(C(=O)NN)c1`, the melting point rises from 92.5 °C to 94 °C.

Going from `Cc1ccc[n+]([O-])c1` to `Cc1nc2ccccc2o1`, the melting point falls from 39 °C to 9.5 °C.

First: Cn1c(=O)c2c(ncn2C)n(C)c1=O
Second: Nc1ccc(S(=O)(=O)Nc2nccs2)cc1
The melting point of the first is higher: 238 °C for the first, 189 °C for the second.

Going from `CCCCCCCCCS` to `CCCCCCCOC(=O)CCCCC`, the melting point falls from -20.1 °C to -34.4 °C.

Compared with `CCN=C=S`, `Br.CCNCC` is higher in melting point: -5.9 °C for the first, 219 °C for the second.

Compared with `BrCCCOc1ccccc1`, `CCCCCCCC(=O)c1ccccc1` is higher in melting point: 10.7 °C for the first, 22.8 °C for the second.

Compared with `Cc1ccc2ccccc2n1`, `CC(C)(C)c1ccc2ccccc2c1` is lower in melting point: -1.5 °C for the first, -4 °C for the second.

First: O=C(O)c1ccccc1C1c2ccc(O)cc2Oc2cc(O)ccc21
Second: O=C1c2ccccc2C(=O)c2c(O)ccc(O)c21
The melting point of the first is lower: 126 °C for the first, 200 °C for the second.

Going from `O=C(O)CCCCCCCCCCCCCCCCCCC(=O)O` to `CCCCCCCCCCCCCCC(=O)OC`, the melting point falls from 126 °C to 18.5 °C.

Going from `OC1CCCC1` to `C1=CCCCCC1`, the melting point falls from -19 °C to -56 °C.

Compared with `CCCCCCCCCCCCCCCC(OC)OC`, `CCCCCCC(CCCCCC)CCCCCC` is lower in melting point: 10 °C for the first, -28.3 °C for the second.

Going from `OCCc1c[nH]c2ccccc12` to `Clc1[nH]nc2ccccc12`, the melting point rises from 59 °C to 149 °C.

Compared with `COc1ccccc1Cl`, `OC(c1ccc(Cl)cc1)(c1cncnc1)c1ccccc1Cl` (stereo not drawn) is higher in melting point: -26.8 °C for the first, 118 °C for the second.

Compared with `CC(C)(F)F`, `CC(CN1c2ccccc2Sc2ccccc21)N(C)C` (stereo not drawn) is higher in melting point: -105 °C for the first, 60 °C for the second.

Going from `C=CCc1ccc2c(c1)OCO2` to `O=[N+]([O-])c1ccc(Cl)c(Cl)c1`, the melting point rises from 11.2 °C to 43 °C.

Going from `c1ccc(-c2cnc(-c3ccccc3)o2)cc1` to `CCN(CC)CCSC(=O)N(c1ccccc1)c1ccccc1`, the melting point falls from 74 °C to 48.5 °C.

First: C1O[C@@H]1[C@@H]1CO1
Second: O=C1CCC[C@@H]2[C@H]3CCCN4CCC[C@@H](CN12)[C@@H]34 (racemic)
The melting point of the first is lower: 3.5 °C for the first, 76 °C for the second.

Compared with `CCOc1ccc2cc(O)c(O)cc2c1`, `COc1cc(OC)nc(N=C(O)NS(=O)(=O)Nc2ccccc2C(=O)C2CC2)n1` is higher in melting point: 132 °C for the first, 162 °C for the second.

Work on `C[C@]12CC[C@@H](O)C[C@H]1CC[C@@H]1[C@@H]2C(=O)C[C@@]2(C)[C@H]1CC[C@]2(O)C(=O)CO` yielded a melting point of 214 °C.

With `CCOP(=O)(OCC)OCC` the ready biodegradability was “not readily biodegradable”.
With `Cl/C=C/Cl` the ready biodegradability was “not readily biodegradable”.
With `O=C(O)CN(CCN(CC(=O)O)CC(=O)O)CC(=O)O` the ready biodegradability was “not readily biodegradable”.
With `C=C(C)C(=O)OCCO` the ready biodegradability was “readily biodegradable”.
In the case of `O=C(O)[C@H](O)[C@@H](O)C(=O)O`, the ready biodegradability is reported as “readily biodegradable”.
In the case of `O=[N+]([O-])c1ccc(Cl)c(Cl)c1`, the ready biodegradability is reported as “not readily biodegradable”.
With `CCO[Si](CCCN)(OCC)OCC` the ready biodegradability was “not readily biodegradable”.
In the case of `CC1CCC2C(=O)OC(=O)C2C1` (stereo not drawn), the ready biodegradability is reported as “not readily biodegradable”.

Compared with `C=CCc1ccc2c(c1)OCO2`, `O=[N+]([O-])c1ccc(Cl)c(Cl)c1` is lower in log10 Koc (L/kg): 2.83 for the first, 2.53 for the second.

Work on `OC(c1ccc(Cl)cc1)(c1cncnc1)c1ccccc1Cl` (stereo not drawn) yielded a log10 Koc (L/kg) of 2.78.

Source: the OPERA property sets (Mansouri et al. 2018)
